Source: patent publication US10160747B2, “Compounds and methods for kinase modulation, and indications therefor” (Plexxikon Inc., priority 2016, dated 2018)

Target: T1, BA/F3-FLT3-ITD + D835Y (Homo sapiens, UniProt P36888, D835Y, cells depend on it, form not given)
T1 sequence (P36888 with tags, fused parts or gaps INS600HVDFREYEYD/D835Y): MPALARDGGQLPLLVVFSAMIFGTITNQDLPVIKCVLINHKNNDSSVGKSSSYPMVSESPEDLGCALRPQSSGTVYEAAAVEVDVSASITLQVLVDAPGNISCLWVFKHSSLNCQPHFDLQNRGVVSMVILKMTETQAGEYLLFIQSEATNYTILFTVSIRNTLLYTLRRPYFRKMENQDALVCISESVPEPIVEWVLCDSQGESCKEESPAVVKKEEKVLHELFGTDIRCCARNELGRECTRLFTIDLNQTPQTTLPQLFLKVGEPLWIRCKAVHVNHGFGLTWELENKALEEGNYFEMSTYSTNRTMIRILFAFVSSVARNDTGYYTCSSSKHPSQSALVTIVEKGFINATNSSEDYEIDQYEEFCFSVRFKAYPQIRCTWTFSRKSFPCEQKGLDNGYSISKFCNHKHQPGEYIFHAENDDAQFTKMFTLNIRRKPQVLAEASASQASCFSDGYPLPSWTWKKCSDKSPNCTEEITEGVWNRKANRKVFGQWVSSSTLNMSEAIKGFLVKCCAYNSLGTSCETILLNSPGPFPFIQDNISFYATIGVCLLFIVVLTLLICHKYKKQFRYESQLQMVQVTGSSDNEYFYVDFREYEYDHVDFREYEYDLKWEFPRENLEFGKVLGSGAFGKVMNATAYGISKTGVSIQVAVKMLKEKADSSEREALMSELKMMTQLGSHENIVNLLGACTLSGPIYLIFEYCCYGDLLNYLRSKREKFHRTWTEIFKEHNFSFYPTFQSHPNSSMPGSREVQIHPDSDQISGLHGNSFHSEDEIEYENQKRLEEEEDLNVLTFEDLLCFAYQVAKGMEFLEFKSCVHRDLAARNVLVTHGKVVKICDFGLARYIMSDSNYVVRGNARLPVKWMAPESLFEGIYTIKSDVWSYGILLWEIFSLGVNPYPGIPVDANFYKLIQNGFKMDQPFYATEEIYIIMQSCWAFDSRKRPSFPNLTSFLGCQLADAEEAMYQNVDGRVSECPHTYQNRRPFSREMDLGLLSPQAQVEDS
Experiment: Engineered BA/F3 cell growth assay, FLT3 ITD/D835Y
Format: cell-based, murine
Settings: 3 d growth
Outline: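 Murine Ba/F3 cells transfected with full-length FLT3 ITD/D835Y, grown without IL-3 so growth depends on FLT3. Seeded at 1×10^4 cells/well, 8-point 1:3 series to 1 μM top (0.2% DMSO), 3 days at 37 °C. CellTiter-Glo luminescence (ATP) versus concentration gave IC50.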

Compound	GI50
COc1ncc(NC(=O)Cc2ccc(-c3cnc4[nH]c(-c5ccc(C#N)nc5)cc4c3)cc2F)cc1C(F)(F)F [Compound P-0011, 2-[4-[2-(6-cyano-3-pyridyl)-1H-pyrrolo[2,3-b]pyridin-5-yl]-2-fluoro-phenyl]-N-[6-methoxy-5-(trifluoromethyl)-3-pyridyl]acetamide]	0.0001 to 10 µM
COc1ncc(NC(=O)Cc2ccc(-c3cnc4[nH]c(-c5ccnc(C#N)c5)cc4c3)cc2F)cc1C(F)(F)F [Compound P-0013, 2-[4-[2-(2-cyano-4-pyridyl)-1H-pyrrolo[2,3-b]pyridin-5-yl]-2-fluoro-phenyl]-N-[6-methoxy-5-(trifluoromethyl)-3-pyridyl]acetamide]	0.0001 to 10 µM
COc1ncc(NC(=O)Cc2ccc(-c3cnc4[nH]c(-c5ccc(C#N)nc5)cc4c3)c(F)c2)cc1C(F)(F)F [Compound P-0014, 2-[4-[2-(6-cyano-3-pyridyl)-1H-pyrrolo[2,3-b]pyridin-5-yl]-3-fluoro-phenyl]-N-[6-methoxy-5-(trifluoromethyl)-3-pyridyl]acetamide]	0.0001 to 10 µM
COc1ncc(NC(=O)Cc2ccc(-c3cnc4[nH]c(-c5cnn(C(F)F)c5)cc4c3)cc2F)cc1C(F)(F)F [Compound P-0015, 2-[4-[2-[1-(difluoromethyl)pyrazol-4-yl]-1H-pyrrolo[2,3-b]pyridin-5-yl]-2-fluoro-phenyl]-N-[6-methoxy-5-(trifluoromethyl)-3-pyridyl]acetamide]	0.0001 to 10 µM
COc1ncc(NC(=O)Cc2ccc(-c3cnc4[nH]c(-c5ccnc(C#N)c5)cc4c3)c(F)c2)cc1C(F)(F)F [Compound P-0016, 2-[4-[2-(2-cyano-4-pyridyl)-1H-pyrrolo[2,3-b]pyridin-5-yl]-3-fluoro-phenyl]-N-[6-methoxy-5-(trifluoromethyl)-3-pyridyl]acetamide]	0.0001 to 10 µM
Cn1cc(Nc2ncc(-c3ccc(CC(=O)Nc4cc(C(F)(F)F)ccn4)cc3F)cn2)cn1 [Compound P-0017, 2-[3-fluoro-4-[2-[(1-methylpyrazol-4-yl)amino]pyrimidin-5-yl]phenyl]-N-[4-(trifluoromethyl)-2-pyridyl]acetamide]	0.0001 to 10 µM
Cn1cnc(Nc2ncc(-c3ccc(CC(=O)Nc4cc(C(F)(F)F)ccn4)cc3F)cn2)c1 [Compound P-0018, 2-[3-fluoro-4-[2-[(1-methylimidazol-4-yl)amino]pyrimidin-5-yl]phenyl]-N-[4-(trifluoromethyl)-2-pyridyl]acetamide]	0.0001 to 10 µM
Cn1cc(Nc2ncc(-c3cc(F)c(CC(=O)Nc4cc(C(F)(F)F)ccn4)cc3F)cn2)cn1 [Compound P-0019, 2-[2,5-difluoro-4-[2-[(1-methylpyrazol-4-yl)amino]pyrimidin-5-yl]phenyl]-N-[4-(trifluoromethyl)-2-pyridyl]acetamide]	0.0001 to 10 µM
Cn1cnc(Nc2ncc(-c3cc(F)c(CC(=O)Nc4cc(C(F)(F)F)ccn4)cc3F)cn2)c1 [Compound P-0020, 2-[2,5-difluoro-4-[2-[(1-methylimidazol-4-yl)amino]pyrimidin-5-yl]phenyl]-N-[4-(trifluoromethyl)-2-pyridyl]acetamide]	0.0001 to 10 µM
O=C(Cc1cc(F)c(-c2cnc(Nc3cnn(C(F)F)c3)nc2)cc1F)Nc1cc(C(F)(F)F)ccn1 [Compound P-0021, 2-[4-[2-[[1-(difluoromethyl)pyrazol-4-yl]amino]pyrimidin-5-yl]-2,5-difluoro-phenyl]-N-[4-(trifluoromethyl)-2-pyridyl]acetamide]	0.0001 to 10 µM
Cn1cnc(Nc2ncc(-c3ccc(CC(=O)Nc4cc(C(F)(F)F)ccn4)cc3)cn2)c1 [Compound P-0022, 2-[4-[2-[(1-methylimidazol-4-yl)amino]pyrimidin-5-yl]phenyl]-N-[4-(trifluoromethyl)-2-pyridyl]acetamide]	0.0001 to 10 µM
O=C(Cc1ccc(-c2cnc(Nc3cnn(C(F)F)c3)nc2)cc1)Nc1cc(C(F)(F)F)ccn1 [Compound P-0023, 2-[4-[2-[[1-(difluoromethyl)pyrazol-4-yl]amino]pyrimidin-5-yl]phenyl]-N-[4-(trifluoromethyl)-2-pyridyl]acetamide]	0.0001 to 10 µM
COc1cc(-c2cc3cc(-c4ccc(CC(=O)Nc5cncc(C(F)(F)F)c5)cc4F)cnc3[nH]2)ccn1 [Compound P-0200, 2-(3-fluoro-4-(2-(2-methoxypyridin-4-yl)-1H-pyrrolo[2,3-b]pyridin-5-yl)phenyl)-N-(5-(trifluoromethyl)pyridin-3-yl)acetamide]	0.0001 to 10 µM
O=C(Cc1ccc(-c2cnc3[nH]c(-c4ccnc(N5CCOCC5)c4)cc3c2)c(F)c1)Nc1cncc(C(F)(F)F)c1 [Compound P-0201, 2-[3-fluoro-4-[2-(2-morpholino-4-pyridyl)-1H-pyrrolo[2,3-b]pyridin-5-yl]phenyl]-N-[5-(trifluoromethyl)-3-pyridyl]acetamide]	0.0001 to 10 µM
CCOc1n[nH]c2ncc(-c3ccc(CC(=O)Nc4cnc(OC)c(C(F)(F)F)c4)cc3F)cc12 [Compound P-0202, 2-[4-(3-ethoxy-1H-pyrazolo[3,4-b]pyridin-5-yl)-3-fluoro-phenyl]-N-[6-methoxy-5-(trifluoromethyl)-3-pyridyl]acetamide]	0.0001 to 10 µM
COc1ncc(NC(=O)Cc2ccc(-c3cnc4[nH]nc(N)c4c3)c(F)c2)cc1C(F)(F)F [Compound P-0203, 2-[4-(3-amino-1H-pyrazolo[3,4-b]pyridin-5-yl)-3-fluoro-phenyl]-N-[6-methoxy-5-(trifluoromethyl)-3-pyridyl]acetamide]	0.0001 to 10 µM
CC(C)(O)C#Cc1cc2cc(-c3ccc(CC(=O)Nc4cncc(C(F)(F)F)c4)cc3)cnc2[nH]1 [Compound P-0204, 2-[4-[2-(3-hydroxy-3-methyl-but-1-ynyl)-1H-pyrrolo[2,3-b]pyridin-5-yl]phenyl]-N-[5-(trifluoromethyl)-3-pyridyl]acetamide]	0.0001 to 10 µM
Cn1cc(Nc2ncc(-c3ccc(CC(=O)Nc4cncc(C(F)(F)F)c4)cc3F)cn2)cn1 [Compound P-0205, 2-[3-fluoro-4-[2-[(1-methylpyrazol-4-yl)amino]pyrimidin-5-yl]phenyl]-N-[5-(trifluoromethyl)-3-pyridyl]acetamide]	0.0001 to 10 µM
COc1ncc(NC(=O)Cc2ccc(-c3cnc(Nc4cnn(C)c4)nc3)c(F)c2)cc1C(F)(F)F [Compound P-0206, 2-[3-fluoro-4-[2-[(1-methylpyrazol-4-yl)amino]pyrimidin-5-yl]phenyl]-N-[6-methoxy-5-(trifluoromethyl)-3-pyridyl]acetamide]	0.0001 to 10 µM
Cn1cc(Nc2ncc(-c3cc(F)c(CC(=O)Nc4cncc(C(F)(F)F)c4)cc3F)cn2)cn1 [Compound P-0207, 2-[2,5-difluoro-4-[2-[(1-methylpyrazol-4-yl)amino]pyrimidin-5-yl]phenyl]-N-[5-(trifluoromethyl)-3-pyridyl]acetamide]	0.0001 to 10 µM
COc1ncc(NC(=O)Cc2cc(F)c(-c3cnc(Nc4cnn(C)c4)nc3)cc2F)cc1C(F)(F)F [Compound P-0208, 2-[2,5-difluoro-4-[2-[(1-methylpyrazol-4-yl)amino]pyrimidin-5-yl]phenyl]-N-[6-methoxy-5-(trifluoromethyl)-3-pyridyl]acetamide]	0.0001 to 10 µM
O=C(Cc1ccc(-c2cnc(Nc3cnn(C(F)F)c3)nc2)cc1)Nc1cncc(C(F)(F)F)c1 [Compound P-0209, 2-[4-[2-[[1-(difluoromethyl)pyrazol-4-yl]amino]pyrimidin-5-yl]phenyl]-N-[5-(trifluoromethyl)-3-pyridyl]acetamide]	0.0001 to 10 µM
